Blank lines part the entries; values can stand above or below the molecule they belong to. The source made the active and inactive calls. No cut-off for these calls is given here.
Legend:
[1] = tested on: Quadruplex DNA; assay: Stabilization of c-MYC G4 quadruplex DNA Pu22 (unknown origin) assessed as change in melting temperature at 2 uM by CD spectroscopy; format: nucleic-acid assay
[2] = target: Quadruplex DNA; assay: Binding affinity to c-MYC G4- quadruplex DNA Pu22 (unknown origin) assessed as binding constant by SPR analysis; format: nucleic-acid assay
[3] = Binding affinity to G-rich KRAS DNA (unknown origin) assessed as binding constant by SPR analysis
[4] = Binding affinity to G-rich HRAS DNA (unknown origin) assessed as binding constant by SPR analysis
[5] = Binding affinity to G-rich NRAS RNA (unknown origin) assessed as binding constant by SPR analysis
[6] = Binding affinity to human G-rich Htg22 DNA assessed as binding constant by SPR analysis
[7] = Binding affinity to Hairpin DNA (unknown origin) assessed as binding constant by SPR analysis
[8] = target: Quadruplex DNA; assay: Binding affinity to c-MYC G4 quadruplex DNA Pu22 (unknown origin) assessed as binding constant by SPR analysis; format: nucleic-acid assay
[9] = target: RNA; assay: Binding affinity to NRAS RNA mutant (unknown origin) assessed as binding constant by SPR analysis
[10] = tested on: HepG2; assay: Cytotoxicity against human HepG2 cells assessed as reduction in cell viability measured after 48 hrs by MTT assay; format: functional, cell-based; conditions: HepG2, 48 h
[11] = tested on: MDA-MB-231; assay: Cytotoxicity against human MDA-MB-231 cells assessed as reduction in cell viability measured after 48 hrs by MTT assay; format: functional, cell-based; conditions: MDA-MB-231, 48 h
[12] = Cytotoxicity against human HBL-100 cells assessed as reduction in cell viability measured after 48 hrs by MTT assay; format: toxicity, cell-based
[13] = tested on: NM23-H2/c-MYC G4 quadruplex DNA; assay: Disruption of NM23-H2/c-MYC G4 quadruplex DNA (unknown origin) interaction incubated for 1 hrs by ELISA; format: protein assay
[14] = tested on: BLM/c-MYC G4 quadruplex DNA; assay: Disruption of BLM/c-MYC G4 quadruplex DNA (unknown origin) interaction incubated for 1 hrs by ELISA; format: protein assay
[15] = tested on: DHX36/c-MYC G4 quadruplex DNA; assay: Disruption of DHX36/c-MYC G4 quadruplex DNA (unknown origin) interaction incubated for 1 hrs by ELISA; format: protein assay
[16] = target: Quadruplex DNA; assay: Binding affinity to 5' FAM-labeled c-MYC G4 quadruplex DNA Pu22 (unknown origin) by fluorescence quench assay; format: nucleic-acid assay
[17] = target: Quadruplex DNA; assay: Binding affinity to 3' FAM-labeled c-MYC G4 quadruplex DNA Pu22 (unknown origin) by fluorescence quench assay; format: nucleic-acid assay
[18] = tested on: MDA-MB-231; assay: Cytotoxicity against human MDA-MB-231 cells measured after 48 hrs; format: functional, cell-based
[19] = tested on: Quadruplex DNA; assay: Inhibition of c-MYC G4 quadruplex DNA in HEK293T cells co-transfected with Renilla and firefly luciferase assessed as decrease in relative luciferase at 2.5 to 5 uM measured after 24 hrs by dual luciferase reporter assay; format: cell-based; conditions: Homo sapiens, dose 2.5-5 µM
[20] = tested on: Quadruplex DNA; assay: Inhibition of c-MYC G4 quadruplex DNA in HEK293T cells co-transfected with Renilla and firefly luciferase assessed as decrease in relative luciferase measured after 24 hrs by dual luciferase reporter assay; format: cell-based; conditions: Homo sapiens
[21] = tested on: MDA-MB-231; assay: Cytotoxicity against human MDA-MB-231 cells assessed as reduction in cell viability measured after 24 hrs; format: functional, cell-based
[22] = tested on: MDA-MB-231; assay: Downregulation of c-MYC mRNA level in human MDA-MB-231 cells measured after 24 hrs by RT-PCR analysis; format: functional, cell-based
[23] = tested on: MDA-MB-231; assay: Downregulation of c-MYC expression in human MDA-MB-231 cells measured after 48 hrs by western blot analysis; format: functional, cell-based
[24] = tested on: NM23-H2/c-MYC G4 quadruplex DNA (Homo sapiens); assay: Disruption of NM23-H2/c-MYC G4 quadruplex DNA interaction in MDA-MB-231 cells; format: cell-based
[25] = tested on: Quadruplex DNA; assay: Inhibition of c-MYC G4 quadruplex DNA in human MDA-MB-231 cells assessed as decrease in c-MYC immunoprecipitation at 1.25 to 5 uM measured after 24 hrs by chromatin immunoprecipitation assay; format: cell-based; conditions: dose 1.25-5 µM
[26] = tested on: MCF7; assay: Cytotoxicity against human MCF7 cells measured after 48 hrs; format: functional, cell-based
[27] = tested on: HepG2; assay: Cytotoxicity against human HepG2 cells measured after 48 hrs; format: functional, cell-based
[28] = tested on: SiHa; assay: Cytotoxicity against human SiHa cells measured after 48 hrs; format: functional, cell-based
[29] = tested on: HBL-100; assay: Cytotoxicity against human HBL-100 cells measured after 48 hrs; format: toxicity, cell-based; conditions: hbl-100, 48 h
[30] = tested on: NCM460; assay: Cytotoxicity against human NCM460 cells measured after 48 hrs; format: toxicity, cell-based; conditions: ncm460, 48 h
[31] = tested on: MDA-MB-231; assay: Anticancer activity against human MDA-MB-231 cells (OFP negative) expressing c-MYC G4 quadruplex DNA assessed as arrest of growth measured after 48 hrs by DAPI staining based orange fluorescent protein assay; format: functional, cell-based
[32] = tested on: MDA-MB-231; assay: Inhibition of colony formation in human MDA-MB-231 cells at 0.125 to 5 uM assessed as reduction in colony formation incubated for 10 days and subsequent media replacement with compound for every 2 days by crystal violet staining based assay; format: functional, cell-based; conditions: dose 0.125-5 µM, time 10.0 day
[33] = tested on: MDA-MB-231; assay: Inhibition of colony formation in human MDA-MB-231 cells at 5 uM assessed as reduction in colony formation incubated for 10 days and subsequent media replacement with compound for every 2 days by crystal violet staining based assay; format: functional; conditions: MDA-MB-231, 240 h, time 10 day
[34] = tested on: MDA-MB-231; assay: Antitumor activity against human MDA-MB-231 cells assessed as reduction in cell invasion measured after 24 hrs using crystal violet staining inverted microscope based transwell assay; format: functional; conditions: MDA-MB-231, 24 h
[35] = tested on: MDA-MB-231; assay: Induction of cell cycle arrest in human MDA-MB-231 cells assessed as accumulation at sub G0 phase at 5 uM after 24 hrs by propidium iodide staining based flow cytometric analysis; format: functional
[36] = tested on: MDA-MB-231; assay: Induction of apoptosis in human MDA-MB-231 cells assessed as early apoptosis at 5 uM measured after 24 hrs by AnnexinV/propidium iodide staining based flow cytometry; format: functional, cell-based
[37] = tested on: MDA-MB-231; assay: Induction of apoptosis in human MDA-MB-231 cells assessed as necrosis at 5 uM measured after 24 hrs by AnnexinV/propidium iodide staining based flow cytometry; format: functional, cell-based
[38] = tested on: MDA-MB-231; assay: Antitumor activity against human MDA-MB-231 cells xenografted in BALB/c-nu/nu mouse assessed as relative increment ratio at 2.5 mg/kg, ip measured for 24 days; format: functional; conditions: time 24 day
[39] = tested on: MDA-MB-231; assay: Antitumor activity against human MDA-MB-231 cells xenografted in BALB/c-nu/nu mouse assessed as tumor growth inhibition at 2.5 mg/kg, ip measured for 24 days; format: functional; conditions: MDA-MB-231, 576 h, time 24 day, read-out: TGI
[40] = Toxicity in BALB/c-nu/nu mouse xenografted with human MDA-MB-231 cells assessed as change in body weight at 2.5 mg/kg, ip; format: organism-based; conditions: in vivo
[41] = Toxicity in BALB/c-nu/nu mouse xenografted with human MDA-MB-231 cells assessed as effect on anatomized heart viscera at 2.5 mg/kg, ip measured after 24 hrs; format: organism-based; conditions: in vivo
[42] = Toxicity in BALB/c-nu/nu mouse xenografted with human MDA-MB-231 cells assessed as effect on anatomized liver viscera at 2.5 mg/kg, ip measured after 24 hrs; format: organism-based; conditions: in vivo
[43] = Toxicity in BALB/c-nu/nu mouse xenografted with human MDA-MB-231 cells assessed as effect on anatomized spleen viscera at 2.5 mg/kg, ip measured after 24 hrs; format: organism-based; conditions: in vivo
[44] = Toxicity in BALB/c-nu/nu mouse xenografted with human MDA-MB-231 cells assessed as effect on anatomized lung viscera at 2.5 mg/kg, ip measured after 24 hrs; format: organism-based; conditions: in vivo
[45] = Toxicity in BALB/c-nu/nu mouse xenografted with human MDA-MB-231 cells assessed as effect on anatomized kidney viscera at 2.5 mg/kg, ip measured after 24 hrs; format: organism-based; conditions: in vivo
[46] = Toxicity in BALB/c-nu/nu mouse xenografted with human MDA-MB-231 cells assessed as side effects at 2.5 mg/kg, ip measured after 24 hrs; format: organism-based; conditions: in vivo
[47] = tested on: MDA-MB-231; assay: Antitumor activity against human MDA-MB-231 cells xenografted in BALB/c-nu/nu mouse assessed as decrease in c-MYC expression in tumor tissue; format: functional, cell-based
[48] = tested on: MDA-MB-231; assay: Induction of cell cycle arrest in human MDA-MB-231 cells assessed as decrease in accumulation at G2/M phase at 5 uM after 24 hrs by propidium iodide staining based flow cytometric analysis; format: functional
[49] = tested on: MDA-MB-231; assay: Antitumor activity against human MDA-MB-231 cells xenografted in BALB/c-nu/nu mouse assessed as relative increment ratio at 1 mg/kg, ip measured for 24 days; format: functional; conditions: time 24 day
[50] = tested on: MDA-MB-231; assay: Antitumor activity against human MDA-MB-231 cells xenografted in BALB/c-nu/nu mouse assessed as tumor growth inhibition at 1 mg/kg, ip measured for 24 days; format: functional; conditions: MDA-MB-231, 576 h, time 24 day, read-out: TGI

ΔTm [1]: 20.3 °C
Kd [2]: 3.8 µM
Kd [3]: 16.4 µM
Kd [4]: > 20 µM
Kd [5]: > 20 µM
Kd [6]: > 20 µM
Kd [7]: > 20 µM
Kd [8]: > 20 µM
Kd [9]: > 20 µM
IC50 [13]: 0.16 µM
IC50 [14]: 2.3 µM
IC50 [15]: 7 µM
Kd [16]: 0.56 µM
Kd [17]: 2.94 µM
Activity [24]: Active
IC50 [34]: 7 µM
SMILES: CCn1c2ccccc2c2cc(-c3nc(-c4ccc(N5CCN(C)CC5)cc4)c(-c4ccc(N5CCN(C)CC5)cc4)n3-c3ccc(OCCOCCOC4(C)O[C@H]5O[C@H](CO)[C@@H](O)[C@H](O)[C@H]5O4)cc3)ccc21 (single isomer, unassigned)
IC50 [10]: 5 µM
IC50 [11]: 3.9 µM
IC50 at 48 h [12]: > 100 µM
Activity [18]: Active
inhibition [19]: Active
Activity [20]: Active
Activity [21]: Active
Activity [22]: Active
Activity [23]: Active
inhibition [25]: Active
Activity [26]: Active
Activity [27]: Active
Activity [28]: Active
Activity [29]: Toxic
Activity [30]: Toxic
Activity [31]: Active
inhibition [32]: Active
inhibition at 5 µM [33]: 100%
inhibition at 5 µM [35]: 20%
Activity [36]: Active
Activity [37]: Active
Activity [38]: 89.9%
inhibition in vivo at 2.5 mg/kg [39]: 87.8%
Activity [40]: Non-Toxic
Activity [41]: Non-Toxic
Activity [42]: Non-Toxic
Activity [43]: Non-Toxic
Activity [44]: Non-Toxic
Activity [45]: Non-Toxic
Activity [46]: Non-Toxic
Activity [47]: Active
Activity [48]: Active

SMILES: COc1cccc2c1C(=O)c1c(O)c3c(c(O)c1C2=O)C[C@@](O)(C(=O)CO)C[C@@H]3O[C@H]1C[C@H](N)[C@H](O)[C@H](C)O1 [DOXORUBICIN]
Activity [49]: 85.4%
inhibition in vivo at 1 mg/kg [50]: 80.2%

Reference: ChEMBL document CHEMBL5104180, “Design, Synthesis, and Evaluation of New Sugar-Substituted Imidazole Derivatives as Selective c-MYC Transcription Repressors Targeting the Promoter G-Quadruplex” (J Med Chem, 2022)
